Type in all cases: functional
Assay [1] has as its system Bacillus subtilis. Kind of assay: Antibacterial activity against Bacillus subtilis KCCM 11316 assessed as inhibition of bacterial growth incubated for 24 hrs by broth dilution method. Background: In broth dilution the organism is exposed to a series of concentrations in liquid medium.
The test system of assay [2] is Staphylococcus epidermidis. Kind of assay: Antibacterial activity against Staphylococcus epidermidis KCCM 35494 assessed as inhibition of bacterial growth incubated for 24 hrs by broth dilution method.
The test system of assay [3] is Pseudomonas fluorescens. Kind of assay: Antibacterial activity against Pseudomonas fluorescens KCCM 11362 assessed as inhibition of bacterial growth incubated for 24 hrs by broth dilution method.
The test system of assay [4] is Escherichia coli. Description: Antibacterial activity against Escherichia coli KCCM 11234 assessed as inhibition of bacterial growth incubated for 24 hrs by broth dilution method.

SMILES strings stand for the structures. In brackets after ≈: the same amount, converted by molar mass.

With `CC[C@@H](C)[C@H]1NC(=O)[C@H](Cc2ccccc2)NC(=O)[C@@H](CCCCN)NC(=O)[C@H](Cc2ccc(O)cc2)NC(=O)[C@H]([C@@H](C)CC)NC(=O)[C@@H](CC(C)C)NC1=O`, the MIC is above 128 µg/mL in assay [1], 4 µg/mL (≈ 5.14 µM) in assay [2], 16 µg/mL (≈ 20.6 µM) in assay [3] and 16 µg/mL (≈ 20.6 µM) in assay [4].
`CC[C@H](C)[C@@H]1NC(=O)[C@@H](CC(C)C)NC(=O)[C@@H](C(C)C)NC(=O)[C@H](Cc2ccccc2)NC(=O)[C@@H](CCCCN)NC(=O)[C@H](Cc2ccc(O)cc2)NC1=O`: the MIC was above 128 µg/mL in assay [1], 8 µg/mL (≈ 10.5 µM) in assay [2], 32 µg/mL (≈ 41.9 µM) in assay [3] and 16 µg/mL (≈ 20.9 µM) in assay [4].
For `NC[C@H]1O[C@H](O[C@H]2[C@H](O)[C@@H](O[C@H]3O[C@H](CO)[C@@H](O)[C@H](N)[C@H]3O)[C@H](N)C[C@@H]2N)[C@H](O)[C@@H](O)[C@@H]1O` [KANAMYCIN] the same measures were 2 µg/mL (≈ 4.13 µM), 0.5 µg/mL (≈ 1.03 µM), 1 µg/mL (≈ 2.06 µM) and 1 µg/mL (≈ 2.06 µM).

As usually defined, the MIC is the least concentration at which growth counts as inhibited.
